Data reported in PubChem BioAssay AID1963832 (Molecular Pharmacology Branch, DTP, NCI, 2024).

System: 885724-159-R-J1-PDC complex spheroid viability
Assay: Anticancer human tumor 885724-159-R-J1-PDC patient-derived pancreatic adenocarcinoma cell line growth inhibition [POLQ]
Conditions: for IC50: curve of first compound; for viability, T/C: stronger effect = lower value
Summary of the method: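 Three-cell-type spheroids modelling solid tumor plus stroma served as the readout system; POL inhibitors were tested individually and in combination, concentration ranges set by clinical Cmax where known.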
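Also: spheroids exposed to compounds for 7 days.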

With `O=C(Nc1ccc(O)c(NS(=O)(=O)c2ccc(F)cc2)c1)c1ccc(-c2ccccc2)cc1` + COC1C(OC(N)=O)C(O)C(Oc2ccc3c(O)c(NC(=O)c4ccc(O)c(CC=C(C)C)c4)c(=O)oc3c2C)OC1(C)C as the compound, how does the IC50 (second compound 0.0316 µM) read?
The IC50 was > 10 µM.

What about the IC50 (second compound 0.1 µM) of the same compound?
Its IC50 is > 10 µM.

And the IC50 (second compound 0.316 µM)?
Its IC50 is > 10 µM.

What about the IC50 (second compound 1 µM) of the same compound?
The IC50 was > 10 µM.

And the IC50 (second compound 3.16 µM)?
The IC50 was > 10 µM.

What about the IC50 (second compound 10 µM) of the same compound?
The IC50 was > 10 µM.

What about the viability, T/C (second compound 0.0316 µM, first compound 0.0316 µM) of the same compound?
The viability, T/C was 90.9%.

And the viability, T/C (second compound 0.0316 µM, first compound 0.1 µM)?
Its viability, T/C is 91.9%.

What about the viability, T/C (second compound 0.0316 µM, first compound 0.316 µM) of the same compound?
Its viability, T/C is 92.7%.

What about the viability, T/C (second compound 0.0316 µM, first compound 1 µM) of the same compound?
Its viability, T/C is 102%.

And the viability, T/C (second compound 0.0316 µM, first compound 3.16 µM)?
Its viability, T/C is 98.6%.

What about the viability, T/C (second compound 0.0316 µM, first compound 10 µM) of the same compound?
Its viability, T/C is 72.9%.

And the viability, T/C (second compound 0.1 µM, first compound 0.0316 µM)?
Its viability, T/C is 104%.

And the viability, T/C (second compound 0.1 µM, first compound 0.1 µM)?
The viability, T/C was 96.7%.

And the viability, T/C (second compound 0.1 µM, first compound 0.316 µM)?
Its viability, T/C is 98.1%.

And the viability, T/C (second compound 0.1 µM, first compound 1 µM)?
The viability, T/C was 104%.

What about the viability, T/C (second compound 0.1 µM, first compound 3.16 µM) of the same compound?
The viability, T/C was 109%.

What about the viability, T/C (second compound 0.1 µM, first compound 10 µM) of the same compound?
The viability, T/C was 72.7%.

What about the viability, T/C (second compound 0.316 µM, first compound 0.0316 µM) of the same compound?
The viability, T/C was 105%.

And the viability, T/C (second compound 0.316 µM, first compound 0.1 µM)?
The viability, T/C was 95.6%.

And the viability, T/C (second compound 0.316 µM, first compound 0.316 µM)?
Its viability, T/C is 90%.

And the viability, T/C (second compound 0.316 µM, first compound 1 µM)?
Its viability, T/C is 107%.

And the viability, T/C (second compound 0.316 µM, first compound 3.16 µM)?
The viability, T/C was 106%.

And the viability, T/C (second compound 0.316 µM, first compound 10 µM)?
The viability, T/C was 87.3%.

And the viability, T/C (second compound 1 µM, first compound 0.0316 µM)?
The viability, T/C was 107%.

What about the viability, T/C (second compound 1 µM, first compound 0.1 µM) of the same compound?
Its viability, T/C is 96%.

And the viability, T/C (second compound 1 µM, first compound 0.316 µM)?
Its viability, T/C is 95%.

What about the viability, T/C (second compound 1 µM, first compound 1 µM) of the same compound?
Its viability, T/C is 100%.

What about the viability, T/C (second compound 1 µM, first compound 3.16 µM) of the same compound?
The viability, T/C was 102%.

What about the viability, T/C (second compound 1 µM, first compound 10 µM) of the same compound?
Its viability, T/C is 71.4%.

And the viability, T/C (second compound 3.16 µM, first compound 0.0316 µM)?
Its viability, T/C is 96.6%.

And the viability, T/C (second compound 3.16 µM, first compound 0.1 µM)?
Its viability, T/C is 92%.

What about the viability, T/C (second compound 3.16 µM, first compound 0.316 µM) of the same compound?
Its viability, T/C is 95.1%.

And the viability, T/C (second compound 3.16 µM, first compound 1 µM)?
Its viability, T/C is 94.1%.

And the viability, T/C (second compound 3.16 µM, first compound 3.16 µM)?
The viability, T/C was 101%.

And the viability, T/C (second compound 3.16 µM, first compound 10 µM)?
Its viability, T/C is 84.1%.

What about the viability, T/C (second compound 10 µM, first compound 0.0316 µM) of the same compound?
Its viability, T/C is 94.8%.

And the viability, T/C (second compound 10 µM, first compound 0.1 µM)?
Its viability, T/C is 97.3%.

And the viability, T/C (second compound 10 µM, first compound 0.316 µM)?
Its viability, T/C is 94.6%.

And the viability, T/C (second compound 10 µM, first compound 1 µM)?
The viability, T/C was 97.1%.

What about the viability, T/C (second compound 10 µM, first compound 3.16 µM) of the same compound?
Its viability, T/C is 108%.

And the viability, T/C (second compound 10 µM, first compound 10 µM)?
The viability, T/C was 75.8%.

Which IC50 (second compound 0.0316 µM) does the source give for `CC(=O)O[C@H]1C(=O)[C@@]2(C)[C@H]([C@H](OC(=O)c3ccccc3)[C@]3(O)C[C@H](OC(=O)[C@H](O)[C@@H](NC(=O)c4ccccc4)c4ccccc4)C(C)=C1C3(C)C)[C@]1(OC(C)=O)CO[C@@H]1C[C@@H]2O` + Cc1cccc(N(C)C(=O)C2C(O)CCN2c2nc(C)cc(C(F)(F)F)c2C#N)c1 here?
The IC50 was > 3 µM.

And the IC50 (second compound 0.1 µM)?
The IC50 was > 3 µM.

And the IC50 (second compound 0.316 µM)?
The IC50 was > 3 µM.

What about the IC50 (second compound 1 µM) of the same compound?
Its IC50 is > 3 µM.

What about the IC50 (second compound 3.16 µM) of the same compound?
The IC50 was > 3 µM.

And the IC50 (second compound 10 µM)?
The IC50 was > 3 µM.

What about the viability, T/C (second compound 0.0316 µM, first compound 0.00949 µM) of the same compound?
Its viability, T/C is 76.7%.

What about the viability, T/C (second compound 0.0316 µM, first compound 0.03 µM) of the same compound?
Its viability, T/C is 57.6%.

What about the viability, T/C (second compound 0.0316 µM, first compound 0.0949 µM) of the same compound?
The viability, T/C was 58.8%.

What about the viability, T/C (second compound 0.0316 µM, first compound 0.3 µM) of the same compound?
Its viability, T/C is 62.2%.

And the viability, T/C (second compound 0.0316 µM, first compound 0.949 µM)?
Its viability, T/C is 70.6%.

What about the viability, T/C (second compound 0.0316 µM, first compound 3 µM) of the same compound?
The viability, T/C was 61%.

And the viability, T/C (second compound 0.1 µM, first compound 0.00949 µM)?
Its viability, T/C is 75.1%.

What about the viability, T/C (second compound 0.1 µM, first compound 0.03 µM) of the same compound?
The viability, T/C was 59.4%.

And the viability, T/C (second compound 0.1 µM, first compound 0.0949 µM)?
The viability, T/C was 59.8%.

And the viability, T/C (second compound 0.1 µM, first compound 0.3 µM)?
Its viability, T/C is 70.4%.

What about the viability, T/C (second compound 0.1 µM, first compound 0.949 µM) of the same compound?
Its viability, T/C is 67.3%.

And the viability, T/C (second compound 0.1 µM, first compound 3 µM)?
Its viability, T/C is 70.6%.

And the viability, T/C (second compound 0.316 µM, first compound 0.00949 µM)?
The viability, T/C was 67.6%.

What about the viability, T/C (second compound 0.316 µM, first compound 0.03 µM) of the same compound?
Its viability, T/C is 59.6%.

What about the viability, T/C (second compound 0.316 µM, first compound 0.0949 µM) of the same compound?
Its viability, T/C is 63%.

And the viability, T/C (second compound 0.316 µM, first compound 0.3 µM)?
Its viability, T/C is 63.6%.

And the viability, T/C (second compound 0.316 µM, first compound 0.949 µM)?
The viability, T/C was 75.4%.

What about the viability, T/C (second compound 0.316 µM, first compound 3 µM) of the same compound?
Its viability, T/C is 69.7%.

What about the viability, T/C (second compound 1 µM, first compound 0.00949 µM) of the same compound?
Its viability, T/C is 68.2%.

And the viability, T/C (second compound 1 µM, first compound 0.03 µM)?
Its viability, T/C is 66.3%.

And the viability, T/C (second compound 1 µM, first compound 0.0949 µM)?
The viability, T/C was 62.8%.

And the viability, T/C (second compound 1 µM, first compound 0.3 µM)?
The viability, T/C was 67.2%.

And the viability, T/C (second compound 1 µM, first compound 0.949 µM)?
Its viability, T/C is 69.1%.

And the viability, T/C (second compound 1 µM, first compound 3 µM)?
The viability, T/C was 68.9%.

And the viability, T/C (second compound 3.16 µM, first compound 0.00949 µM)?
The viability, T/C was 62.5%.

And the viability, T/C (second compound 3.16 µM, first compound 0.03 µM)?
Its viability, T/C is 55.1%.

And the viability, T/C (second compound 3.16 µM, first compound 0.0949 µM)?
The viability, T/C was 59.4%.

And the viability, T/C (second compound 3.16 µM, first compound 0.3 µM)?
Its viability, T/C is 63.8%.

And the viability, T/C (second compound 3.16 µM, first compound 0.949 µM)?
Its viability, T/C is 67.6%.

And the viability, T/C (second compound 3.16 µM, first compound 3 µM)?
Its viability, T/C is 64.5%.

And the viability, T/C (second compound 10 µM, first compound 0.00949 µM)?
Its viability, T/C is 59.1%.

And the viability, T/C (second compound 10 µM, first compound 0.03 µM)?
Its viability, T/C is 61.1%.

And the viability, T/C (second compound 10 µM, first compound 0.0949 µM)?
The viability, T/C was 61%.

What about the viability, T/C (second compound 10 µM, first compound 0.3 µM) of the same compound?
The viability, T/C was 66%.

What about the viability, T/C (second compound 10 µM, first compound 0.949 µM) of the same compound?
The viability, T/C was 62.7%.

And the viability, T/C (second compound 10 µM, first compound 3 µM)?
The viability, T/C was 72%.
